Test results: patent US11453647B2, “Benzimidazole derivatives as adenosine receptor antagonists” (Merck Patent GmbH, priority 2017, dated 2022)

Columns and labels:
[1] = pharmacokinetic properties in mouse after single intravenous and oral administration; format: in vivo; conditions: PK data in mouse; for clearance / half-life / Cmax / Vd: female, plasma, 0.2 mg/kg; for Cmax: dose-normalized to 1 mg/kg; for Vd: read-out: Vss
Source text: The objective of the study was to obtain information on the pharmacokinetic properties of the compounds of the present invention in female Wistar rats/mice following single intravenous and oral administration.
Female Wistar rats/mice (n=6) received either a single intravenous (bolus) injection or an oral administration (by gavage) of the tested compound.
The concentrations of the compounds in plasma, feces were quantified using an UPLC method with tandem mass spectrometric detection (LC-MS/MS) previously developed at the ‘Institute of Drug Metabolism and Pharmacokinetics’. The LC-MS/MS system consisted of a Waters Acquity UPLC coupled to an AB Sciex mass spectrometer API 5500 Q-trap. […] The detection of the compounds was performed using multiple reaction monitoring in the positive ionization mode. Plasma samples were spiked with internal standard (20 μl) and the analyte was extracted from the matrix using tertiary-butyl methyl ether (tBME). The organic phase was evaporated to dryness under a stream of nitrogen. The residue was dissolved in acetonitrile/0.1% formic acid for LC-MS/MS analysis. Feces samples were homogenized with 4-times their volume of an ethanol/water mixture (4:1, v/v). Aliquots of the aqueous-ethanolic extracts were spiked with internal standard, diluted with acetonitrile/water (1:1, v/v) and directly injected into the LC-MS/MS system.
Pharmacokinetic parameters Cmax and tmax were taken from the observed data. […] AUC values were calculated by non-compartmental analysis using the linear up/log down method. Numerical data for mean plasma concentrations and derived pharmacokinetic parameters were rounded to 3 significant digits for presentation.

human A1 receptor = target: T1, human A1 receptor (Homo sapiens, UniProt P30542); experiment: functional cAMP (HTRF) assay, recombinant CHO cells expressing human A1 receptor, forskolin, agonist CPA; format: cell-based
T1 construct: expressed in transfected cells; host or cells: CHO
T1 sequence (P30542 1-326): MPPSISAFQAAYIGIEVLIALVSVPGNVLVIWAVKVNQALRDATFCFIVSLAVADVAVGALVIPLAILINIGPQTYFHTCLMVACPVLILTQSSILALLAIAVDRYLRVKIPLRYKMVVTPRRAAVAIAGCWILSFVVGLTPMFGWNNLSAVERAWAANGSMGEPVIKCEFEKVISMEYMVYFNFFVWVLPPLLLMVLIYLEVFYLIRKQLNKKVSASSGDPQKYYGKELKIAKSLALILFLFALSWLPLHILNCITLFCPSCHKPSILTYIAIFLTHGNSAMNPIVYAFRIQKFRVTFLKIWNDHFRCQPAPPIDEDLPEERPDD
Procedure, shortened: (§1)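 Gi-coupled readout: CHO cells expressing human A1 or A3 receptor were treated with forskolin, test compound and agonist (CPA for A1, IB-MECA for A3) for 30 min; cellular cAMP was then measured by HTRF. Data were normalized to inhibitor and DMSO controls and curve-fitted.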

A2B receptors = target: T2, A2B receptors (Homo sapiens, UniProt P29275); experiment: functional cAMP (HTRF) assay, recombinant HEK293 cells expressing human A2B receptor, agonist NECA; format: cell-based; parameters: expressed in transfected cells; host or cells: HEK293
T2 sequence (P29275 1-332): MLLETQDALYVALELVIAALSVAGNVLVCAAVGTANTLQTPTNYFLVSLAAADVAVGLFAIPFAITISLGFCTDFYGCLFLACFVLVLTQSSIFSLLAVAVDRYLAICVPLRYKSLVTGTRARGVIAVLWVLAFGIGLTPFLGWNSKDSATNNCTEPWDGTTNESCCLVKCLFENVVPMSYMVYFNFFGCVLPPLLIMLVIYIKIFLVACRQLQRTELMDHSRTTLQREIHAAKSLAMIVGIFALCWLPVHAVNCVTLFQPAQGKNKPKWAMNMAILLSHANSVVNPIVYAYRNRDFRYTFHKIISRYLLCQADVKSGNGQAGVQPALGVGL

human A2A receptor = target: T3, human A2A receptor (Homo sapiens, UniProt P29274); experiment: functional cAMP (HTRF) assay, recombinant HEK293 cells expressing human A2A receptor, agonist NECA; format: cell-based
T3 construct: expressed in transfected cells; host or cells: HEK293

human A3 receptor = target: T4, human A3 receptor (Homo sapiens, UniProt P0DMS8); experiment: functional cAMP (HTRF) assay, recombinant CHO cells expressing human A3 receptor, forskolin, agonist IB-MECA; format: cell-based
T4 construct: expressed in transfected cells; host or cells: CHO
T4 sequence (P0DMS8 1-318): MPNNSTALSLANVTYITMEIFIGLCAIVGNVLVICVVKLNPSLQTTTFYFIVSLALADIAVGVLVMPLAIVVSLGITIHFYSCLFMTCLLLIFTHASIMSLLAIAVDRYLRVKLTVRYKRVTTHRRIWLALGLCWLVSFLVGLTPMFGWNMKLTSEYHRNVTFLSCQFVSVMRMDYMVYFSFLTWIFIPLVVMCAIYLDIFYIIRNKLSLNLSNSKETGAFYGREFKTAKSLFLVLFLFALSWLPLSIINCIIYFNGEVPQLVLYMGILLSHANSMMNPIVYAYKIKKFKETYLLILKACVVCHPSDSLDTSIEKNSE
Procedure, shortened: as §1

mouse Pan T cells = experiment: mouse Pan T cell IFN-γ rescue from A2A agonist CGS-21680 (ELISA, 48 h); format: cell-based; conditions: Mus musculus, T-cell
Source text: Adenosine (Ado) in tumor microenvironment can inhibit T cell activity by signaling through A2A receptors and suppress cytokine secretion by T cells. […] Potential A2A antagonists or A2A/A2B dual antagonists can rescue T cells from this inhibition. Herein, we describe the in vitro system we established using Pan T cells from mouse spleens to screen potential A2A antagonists or A2A/A2B dual antagonists for their activity. The method described involves the use of CD3/CD28 pre-coated beads to stimulate Pan T cells purified from mouse splenocytes, combined with the addition of A2A agonist along with potential A2A or A2A/A2B dual antagonists to evaluate potentiation of T cell cytokine production.
Briefly, mouse Pan T cells are purified from spleens of BALB/c mice using Pan T cell isolation kit Mouse II (MACS Miltenyi biotech Cat # Order no. 130-095-130) according to manufacturer's protocol. The purified T cells are seeded in Nunc™ 96-Well Polystyrene Round Bottom Microwell Plates in RPMI medium with 10% heat inactivated fetal bovine serum. The cells are rested at 37° C. for 1 h before activating with CD3/CD28 pre-coated beads (Dynabeads™ Mouse T-Activator CD3/CD28; Cat #11456D). After 30 min the cells are treated with varying doses of test antagonist(s). […] After 24 h incubation IL-2 levels in the supernatants and after 48 h incubation IFN-γ levels in the supernatants are measured by ELISAs according to manufacturer's protocol (R&D systems Cat # DY402 (IL-2); DY485 (IFN-γ)). Once the concentrations are calculated, the difference of cytokine concentration of DMSO control and agonist alone control is calculated (called A) and the percentage of rescue by each concentration of antagonist is calculated by using Microsoft Excel. These percentages of cytokine rescue in a dose dependent manner of antagonist is plotted in GraphPad Prism software and IC50 is calculated.

T3 sequence (P29274 whole entry): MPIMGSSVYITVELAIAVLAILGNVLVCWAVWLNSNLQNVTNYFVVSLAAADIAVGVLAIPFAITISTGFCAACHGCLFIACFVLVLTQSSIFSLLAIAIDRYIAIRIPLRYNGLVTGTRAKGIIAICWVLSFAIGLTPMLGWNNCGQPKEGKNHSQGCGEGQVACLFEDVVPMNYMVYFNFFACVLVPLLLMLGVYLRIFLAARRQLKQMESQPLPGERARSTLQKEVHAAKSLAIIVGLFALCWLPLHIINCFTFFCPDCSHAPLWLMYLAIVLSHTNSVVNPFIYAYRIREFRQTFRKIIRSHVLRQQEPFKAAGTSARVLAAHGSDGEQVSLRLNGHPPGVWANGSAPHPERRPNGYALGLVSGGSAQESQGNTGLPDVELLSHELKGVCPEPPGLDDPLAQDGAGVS

Feces iv ([1]; @0.2 (dose, unit not given))	clearance [1] [mL/min/kg]	half-life [1] [min]	Cmax [1] [ng/mL]	Vd [1] [L/kg]	IC50 (human A1 receptor) [nM]	IC50 (A2B receptors) [nM]	IC50 (human A2A receptor) [nM]	IC50 (human A3 receptor) [nM]	IC50 (mouse Pan T cells) [nM]	Feces iv ([1]; @0.08 (dose, unit not given))	Compound
5.6@0.2%	5.55	69	2100	0.522	> 1000	> 1000	< 10	> 1000	–	–	COc1ccc(N2CCOCC2)c2nc(NC(=O)c3cnn(C)c3)[nH]c12 [compound 136, N-[7-methoxy-4-(morpholin-4-yl)-1H-1,3-benzodiazol-2-yl]-1-methyl-1H-pyrazole-4-carboxamide]
34@0.2%	31.7	37.3	718	1.54	> 1000	< 1000	< 10	< 1000	–	–	COc1ccc(-c2cnn(C)c2)c2nc(NC(=O)c3ccnc(N4CC[C@@](C)(O)C4)c3)[nH]c12 [compound 107, 2-[(3R)-3-hydroxy-3-methylpyrrolidin-1-yl]-N-[7-methoxy-4-(1-methyl-1H-pyrazol-4-yl)-1H-1,3-benzodiazol-2-yl]pyridine-4-carboxamide]
2.5@0.2%	12.7	40.1	2640	0.402	> 1000	< 1000	< 10	> 1000	–	–	COc1ccc(C2CCOCC2)c2nc(NC(=O)c3ccc(C(=O)N(C)C)cc3)[nH]c12 [compound 133, N4-[7-methoxy-4-(oxan-4-yl)-1H-1,3-benzodiazol-2-yl]-N1,N1-dimethylbenzene-1,4-dicarboxamide]
27@0.2%	11.4	42.6	1820	0.568	< 1000	< 1000	< 10	< 1000	–	–	COc1ccc(-c2ccccc2)c2nc(NC(=O)N3CCC(C)(O)CC3)[nH]c12 [compound 12, 4-Hydroxy-4-methyl-piperidine-1-carboxylic acid (7-methoxy-4-phenyl-1H-benzoimidazol-2-yl)-amide]
29@0.2%	12.5	58	1050	1.01	> 1000	< 100	< 10	> 1000	–	–	COc1ccc(C2CCOCC2)c2nc(NC(=O)c3ccc(Cn4ccnc4)cc3)[nH]c12 [compound 97, 4-[(1H-imidazol-1-yl)methyl]-N-[7-methoxy-4-(oxan-4-yl)-1H-1,3-benzodiazol-2-yl]benzamide]
–	–	–	–	–	–	–	–	–	800	–	COc1ccc(-c2cnn(C)c2)c2nc(NC(=O)N3CCC4(CCCOC4)C3)[nH]c12 (centres unmarked) [compound 67, N-[7-methoxy-4-(1-methyl-1H-pyrazol-4-yl)-1H-1,3-benzodiazol-2-yl]-7-oxa-2-azaspiro[4.5]decane-2-carboxamide]
–	12.7	50.3	2650	0.508	–	–	–	–	–	38@0.08%	COc1ccc(N2CCOCC2)c2nc(NC(=O)N3CCC(C)(O)CC3)[nH]c12 [compound 21, 4-hydroxy-N-(7-methoxy-4-morpholino-1H-benzimidazol-2-yl)-4-methyl-piperidine-1-carboxamide]
11@0.2%	10.3	103	733	1.54	–	–	–	–	–	–	COc1ccc(N2CCOCC2)c2nc(NC(=O)c3ccnc(N4CCOCC4)c3)[nH]c12 [compound 23, N-(7-Methoxy-4-morpholin-4-yl-1H-benzoimidazol-2-yl)-2-morpholin-4-yl-isonicotinamide]
–	28.5	32.3	1.9	1.06	> 1000	< 1000	< 10	> 1000	–	–	COc1ccc(C2CCOCC2)c2nc(NC(=O)c3ccc(CN4CCCC4=O)cc3)[nH]c12 [compound 138, N-[7-methoxy-4-(oxan-4-yl)-1H-1,3-benzodiazol-2-yl]-4-[(2-oxopyrrolidin-1-yl)methyl]benzamide]
–	–	–	–	–	> 1000	< 1000	< 100	> 1000	–	–	COCCC1CCN(C(=O)Nc2nc3c(-c4cnn(C)c4)ccc(OC)c3[nH]2)C1 (centres unmarked) [compound 134, N-[7-methoxy-4-(1-methyl-1H-pyrazol-4-yl)-1H-1,3-benzodiazol-2-yl]-3-(2-methoxyethyl)pyrrolidine-1-carboxamide]

Compound	Feces iv ([1]; @0.2 (dose, unit not given))	clearance [1] [mL/min/kg]	half-life [1] [min]	Cmax [1] [ng/mL]	Vd [1] [L/kg]	IC50 (human A1 receptor) [nM]	IC50 (A2B receptors) [nM]	IC50 (human A2A receptor) [nM]	IC50 (human A3 receptor) [nM]	IC50 (mouse Pan T cells) [nM]	Feces iv ([1]; @0.08 (dose, unit not given))
COc1ccc(-c2cnn(C)c2)c2nc(NC(=O)N3CC[C@@]4(CCOC4)C3)[nH]c12 [compound 116, (5R)-N-[7-methoxy-4-(1-methyl-1H-pyrazol-4-yl)-1H-1,3-benzodiazol-2-yl]-2-oxa-7-azaspiro[4.4]nonane-7-carboxamide]	16.9@0.2%	12.3	58	1130	0.917	–	–	–	–	–	–
COc1ccc(-c2cnn(C)c2)c2nc(NC(=O)N3CCC(C)(O)CC3)[nH]c12 [compound 22, 4-Hydroxy-4-methyl-piperidine-1-carboxylic acid [7-methoxy-4-(1-methyl-1H-pyrazol-4-yl)-1H-benzoimidazol-2-yl]-amide]	46@0.2%	19.5	52	1320	1.02	–	–	–	–	–	–
COc1ccc(-c2cnn(C)c2)c2nc(NC(=O)N3CC[C@]4(CCOC4)C3)[nH]c12 [compound 115, (5S)-N-[7-methoxy-4-(1-methyl-1H-pyrazol-4-yl)-1H-1,3-benzodiazol-2-yl]-2-oxa-7-azaspiro[4.4]nonane-7-carboxamide]	8.6@0.2%	5.4	59.3	2450	0.425	–	–	–	–	–	–
